Measurements from patent US20050100983A1, “Cell-free methods for identifying compounds that affect toll-like receptor 9 (TLR9) signaling” (Coley Pharmaceutical GmbH, priority 2003, published 2005).

Legend:
[1] = target: T1, mTLR9ect (extracellular domain of murine TLR9 fused to human IgG1-Fc) (Mus musculus, UniProt Q9EQU3); test: SPR biosensor analysis of mTLR9ect binding to immobilized CpG-DNA
T1 construct: mTLR9ect (aa 1-816); made in house
T1 sequence (Q9EQU3 26-816): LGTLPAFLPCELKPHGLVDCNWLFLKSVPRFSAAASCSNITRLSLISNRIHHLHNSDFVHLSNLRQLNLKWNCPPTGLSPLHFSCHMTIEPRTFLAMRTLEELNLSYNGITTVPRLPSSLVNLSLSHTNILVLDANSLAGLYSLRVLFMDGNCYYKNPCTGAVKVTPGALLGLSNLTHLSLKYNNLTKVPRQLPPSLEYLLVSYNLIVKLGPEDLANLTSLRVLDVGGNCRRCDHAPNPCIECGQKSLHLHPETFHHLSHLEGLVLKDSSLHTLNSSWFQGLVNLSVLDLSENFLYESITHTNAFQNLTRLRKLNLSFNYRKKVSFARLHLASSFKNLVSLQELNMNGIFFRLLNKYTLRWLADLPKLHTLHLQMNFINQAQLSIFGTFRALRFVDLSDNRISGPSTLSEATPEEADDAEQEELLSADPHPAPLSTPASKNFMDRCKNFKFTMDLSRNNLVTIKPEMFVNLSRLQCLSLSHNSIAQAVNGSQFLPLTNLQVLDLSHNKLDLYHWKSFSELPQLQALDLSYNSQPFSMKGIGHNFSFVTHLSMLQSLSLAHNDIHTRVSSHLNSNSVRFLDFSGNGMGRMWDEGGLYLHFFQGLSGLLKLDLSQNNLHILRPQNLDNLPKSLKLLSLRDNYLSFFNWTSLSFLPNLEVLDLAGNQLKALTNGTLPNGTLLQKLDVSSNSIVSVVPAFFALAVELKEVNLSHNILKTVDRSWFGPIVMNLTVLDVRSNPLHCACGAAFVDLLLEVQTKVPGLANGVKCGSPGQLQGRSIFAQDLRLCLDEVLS
Description: (§1) Protein. Recombinant fusion proteins consisting of the extracellular domain of Toll-like receptors mTLR9ect (aa 1-816), mTLR9ect-mut (see below) (aa 1-816), hTLR9ect (aa 1-815) and mTLR2ect (aa 1-587) fused to human IgG1-Fc were constructed by amplifying the corresponding extracellular domain and ligating the fragment in frame into a pcDNA3.1(−) (Invitrogen, Netherlands) vector containing the coding sequence for human IgG1-Fc. Fusion proteins were stably expressed in HEK 293 cells and purified from cell lysates by protein A affinity chromatography.
(§2) SPR biosensor analysis. Real-time binding of TLR9 or TLR2 was measured by surface plasmon resonance biosensor technology using the BiaCore X system (Uppsala, Sweden). For analysis of TLR9 and TLR2 interaction, biotinylated CpG-DNA and non-CpG-DNA, or biotinylated Pam3CysK4 and PHCK4, respectively, were loaded in running buffer (50 mM MES, 150 mM NaCl, 1 mM MgCl2 at pH 6.5) on SA chips precoated with streptavidin (Biacore AB, Uppsala, Sweden). Non-CpG-DNA or PHCK4 (Wiesmuller K H et al. (1989) Vaccine 7:29-33) served as reference for CpG-DNA and Pam3CysK4 interaction (structure or sequence in Table 1). […] TLR proteins were introduced at 200 nM or as indicated in 40 μl running buffer at a flow rate of 10 μl/min. Binding was measured at 25° C. for 750 s (delay time 300 s). […] Sensorgrams were recorded and kinetic data were calculated by the BiaCore Evaluation program (Biacore, version 3.0.1). Regeneration of the chip was performed by injection of 10 μl 50 mM NaOH, 1 M NaCl and extensive re-equilibration.
For detailed analysis of TLR9-CpG-DNA interaction, surface plasmon resonance (SPR) biosensor based technology was used with CpG- and non-CpG-DNA immobilized onto separate flow cells of a streptavidin-coated chip. Under these settings non-CpG-DNA served as reference for specific binding (see Methods). Binding of mTLR9ect to DNA was CpG-sequence-specific and increased in a dose-dependent manner. […] Using the 1:1 binding model of the BioEvaluation software as fitting algorithm and on the basis of four different mTLR9ect concentrations ranging from 50 to 300 nM, a dissociation constant (Kd) of 200 nM was obtained with low chi-squared residuals (4,76). […] Weber AN et al. (2003) Nat. Immunol. 4:794-800. Furthermore the concentration of CpG-DNA 1668 (SEQ ID NO:1) for half-maximal activation of murine TLR9 has been recently calculated as 70 nM which correlates well with the KD obtained here. Bauer S et al. (2001) Proc. Natl. Acad. Sci. U.S.A. 98:9237-9242. […] This difference in affinity correlates with the observed species-specific variance in CpG-motif recognition, as well as activation potential. Bauer S et al. (2001) Proc. Natl. Acad. Sci. U.S.A. 98:9237-9242.

[2] = target: T2, mTLR9ect (Mus musculus, UniProt Q9EQU3); test: UV-crosslinking of mTLR9ect with 32P-labeled DNA and SDS-PAGE; type: binding, murine; conditions: SDS-PAGE, complex at 150 kDa
T2 construct: mTLR9ect (aa 1-816); made in house
T2 sequence (Q9EQU3 26-816): T1 sequence (Q9EQU3 26-816)
Description: FIG. 1B is an image of an SDS-PAGE gel depicting purified proteins from FIG. 1A UV-crosslinked with ^32P-labeled CpG- or non-CpG-DNA, separated by SDS-PAGE, and autoradiographed. TLR9 and free DNA are highlighted.
Bauer S et al. (2001) Proc. Natl. Acad. Sci. U.S.A. 98:9237-9242. To assess binding of TLR9 to CpG-DNA, a recombinant fusion protein consisting of the extracellular domain of murine TLR9 and human IgG 1-Fc (mTLR9ect) was constructed. The extracellular domain of murine TLR2 also fused to IgG1-Fc (mTLR2ect) served as control. Proteins were expressed in HEK 293 cells and purified via protein A affinity chromatography (FIG. 1A). Under denaturing and non-reducing conditions mTLR9ect and mTLR2ect are approximately 10% in a monomeric and 90% in a dimeric form. Dimerization of the proteins is probably mediated by the IgG 1-Fc fusion partner which forms disulfide bonds (FIG. 1A). Initially, binding of mTLR9ect to radiolabeled DNA was determined by UV-crosslinking and subsequent SDS-PAGE.

[3] = target: T3, human TLR9ect (Homo sapiens, UniProt Q9NR96); test: SPR biosensor analysis of human TLR9ect binding to CpG-DNA 2006; conditions: non-CpG-DNA 2006GC as control
T3 construct: hTLR9ect (aa 1-815); made in house
T3 sequence (Q9NR96 26-815): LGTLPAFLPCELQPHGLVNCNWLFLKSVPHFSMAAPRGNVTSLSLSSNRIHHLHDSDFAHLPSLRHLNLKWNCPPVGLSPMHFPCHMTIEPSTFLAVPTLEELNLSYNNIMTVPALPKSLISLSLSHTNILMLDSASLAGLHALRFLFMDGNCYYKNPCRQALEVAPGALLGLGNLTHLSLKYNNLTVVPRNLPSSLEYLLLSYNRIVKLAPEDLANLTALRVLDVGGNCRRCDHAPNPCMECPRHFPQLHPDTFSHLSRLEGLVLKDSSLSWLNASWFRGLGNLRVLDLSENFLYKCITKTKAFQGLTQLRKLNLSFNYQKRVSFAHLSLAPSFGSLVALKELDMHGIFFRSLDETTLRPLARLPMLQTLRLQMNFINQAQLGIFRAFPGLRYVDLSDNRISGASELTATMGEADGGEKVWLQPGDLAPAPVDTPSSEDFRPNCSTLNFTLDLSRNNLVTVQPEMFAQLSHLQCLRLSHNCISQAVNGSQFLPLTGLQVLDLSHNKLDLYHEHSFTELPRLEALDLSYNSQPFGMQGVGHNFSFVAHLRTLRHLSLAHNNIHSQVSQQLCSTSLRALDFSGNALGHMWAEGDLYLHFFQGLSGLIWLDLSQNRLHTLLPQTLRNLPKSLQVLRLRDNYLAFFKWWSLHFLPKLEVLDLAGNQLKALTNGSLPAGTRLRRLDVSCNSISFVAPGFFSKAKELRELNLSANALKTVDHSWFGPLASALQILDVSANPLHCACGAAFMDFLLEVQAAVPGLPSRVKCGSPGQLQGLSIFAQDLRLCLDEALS
Description: as §1
SPR biosensor analysis. Real-time binding of TLR9 or TLR2 was measured by surface plasmon resonance biosensor technology using the BiaCore X system (Uppsala, Sweden). For analysis of TLR9 and TLR2 interaction, biotinylated CpG-DNA and non-CpG-DNA, or biotinylated Pam3CysK4 and PHCK4, respectively, were loaded in running buffer (50 mM MES, 150 mM NaCl, 1 mM MgCl2 at pH 6.5) on SA chips precoated with streptavidin (Biacore AB, Uppsala, Sweden). Non-CpG-DNA or PHCK4 (Wiesmuller K H et al. (1989) Vaccine 7:29-33) served as reference for CpG-DNA and Pam3CysK4 interaction (structure or sequence in Table 1). […] Binding was measured at 25° C. for 750 s (delay time 300 s). […] Sensorgrams were recorded and kinetic data were calculated by the BiaCore Evaluation program (Biacore, version 3.0.1). […]

[4] = target: T4, TLR9-CpG-DNA interaction (Mus musculus, UniProt Q9EQU3); test: SPR biosensor analysis of inhibitors on TLR9-CpG-DNA interaction; type: binding, murine; conditions: SPR, 200 nM TLR9, immobilized CpG-DNA 1668
T4 construct: mTLR9ect (aa 1-816); made in house
T4 sequence (Q9EQU3 26-816): T1 sequence (Q9EQU3 26-816)
Protocol: Biotinylated CpG-DNA 1668 (SEQ ID NO:1) and non-CpG-DNA 1668GC (SEQ ID NO:3) were immobilized on streptavidin sensor chip flow cells 1 and 2, respectively.
FIG. 2B is a graph depicting SPR biosensor analysis of quinoquine (QC) on TLR9-PAMP interaction. Biotinylated CpG-DNA 1668 (SEQ ID NO:1) and non-CpG-DNA 1668GC (SEQ ID NO:3) were immobilized on streptavidin sensor chip flow cells 1 and 2, respectively. 200 nM TLR9 and indicated concentrations of quinoquine were injected and sensorgrams recorded.
as §2

[5] = tested on: murine TLR9; test: NF-κB luciferase assay, HEK 293 cells transfected with murine TLR9; type: cell-based; conditions: TLR9-transfected HEK 293 cells, 1 μM CpG-DNA, inhibitor added 15 min prior to stimulation
Protocol: Activation is expressed as fold induction compared to no stimulation. NF-κB luciferase assay. For monitoring transient NF-κB activation, 3×10^6 HEK 293 cells were electroporated at 200 volt and 950 μF with 20 ng of a NF-κB luciferase reporter plasmid (kindly provided by Patrick Baeuerle, Munich, Germany) and 1 μg mTLR2 (kindly provided by Tularik, Inc., South San Francisco, USA), mTLR9, or mTLR9-mut expression plasmid. Cells were seeded at 10^5 cells per well and after overnight culture stimulated with 1 μM phosphorothioated CpG-DNA 1668 (SEQ ID NO:1), 1 μM non-CpG-DNA 1668GC (SEQ ID NO:3), 1 μg/ml Pam[…][…] or 1 μg/ml PHCK4 for further 8 hours. […] Stimulated cells were lysed using reporter lysis buffer (Promega, Mannheim, Germany) and lysates were assayed for luciferase activity using a Berthold luminometer (Wildbad, Germany) according to the manufacturer's instruction.

5′-TCCATGAGCTTCCTGATGCT-3′ (chemistry not given here) [non-CpG-DNA 1668GC, non-CpG control oligodeoxynucleotide]
release of bound mTLR9ect by free injected DNA ([1]; competition, free DNA added in dissociation phase): did not lead to the release
effect of pre-incubation of mTLR9ect with DNA on binding to chip-immobilized CpG-DNA ([1]; pre-incubation prior to SPR analysis): no inhibitory effect
binding of mTLR9ect to radiolabeled DNA [2]: bound only weakly

5′-TCGTCGTTTTGTCGTTTTGTCGTT-3′ [CpG-DNA 2006]
interaction with human TLR9ect [3]: specifically interacted

CO/C1=C\C(C)=C\[C@@H](C)[C@@H](O)[C@@H](C)C/C(C)=C/C=C/[C@H](OC)[C@@H]([C@@H](C)[C@@H](O)[C@H](C)[C@@]2(O)C[C@@H](O)[C@H](C)[C@@H](C(C)C)O2)OC1=O [bafilomycin A1]
inhibition of binding of TLR9 to CpG-DNA [4]: did not influence
inhibition of TLR9-driven NF-κB activation [5]: inhibited cell activation
